Data from patent US12780800B1, “Triazole-pyridinyl substituted azacyclohexyl acetic acid compounds as LPA receptor antagonists” (Viva Star Biosciences Limited, priority 2021, dated 2022).

Biological target: T1, LPA1 (Homo sapiens, UniProt Q92633)
T1 construct: ProLink (PK) beta-galactosidase enzyme-fragment tag; host or cells: CHO-K1
Assay: LPA1 calcium flux assay (LPA1 functional antagonist assay)
Type: cell-based
Conditions: PathHunter CHO-K1 EDG2 β-Arrestin cell line; calcium indicator dye; stimulated with EC80 concentration of LPA; FLIPR Tetra
In short: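 The LPA1 antagonist readout was intracellular calcium flux, and IC50 values were calculated from it. Plates stood 30 min at RT after compound addition. Cells, grown overnight, had first taken up calcium dye over 45 min at 37 °C.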

T1 sequence (Q92633 whole entry, the tested form may be a part): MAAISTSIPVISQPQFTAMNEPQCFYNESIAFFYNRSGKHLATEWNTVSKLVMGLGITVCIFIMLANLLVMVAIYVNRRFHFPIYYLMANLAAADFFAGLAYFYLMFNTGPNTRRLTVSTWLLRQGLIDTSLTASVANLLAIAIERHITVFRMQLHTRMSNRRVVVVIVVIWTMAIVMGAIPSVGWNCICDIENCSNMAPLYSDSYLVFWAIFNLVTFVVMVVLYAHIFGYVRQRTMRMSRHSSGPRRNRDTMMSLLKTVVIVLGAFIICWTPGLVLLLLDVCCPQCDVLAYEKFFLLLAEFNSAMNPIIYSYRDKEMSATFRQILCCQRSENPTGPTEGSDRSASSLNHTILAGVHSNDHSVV

IC50 [µM]	Compound
0.5 to 5	CCc1nc(-c2cnn(C)c2Cn2cc(CC(C)C)ccc2=O)ncc1N1C[C@@H](CC(=O)O)CC(F)(F)C1 [Example 40, (S)-2-(1-(4-ethyl-2-(5-((5-isobutyl-2-oxopyridin-1(2H)-yl)methyl)-1-methyl-1H-pyrazol-4-yl)pyrimidin-5-yl)-5,5-difluoropiperidin-3-yl)acetic acid]
0.1 to 0.5	CCCc1ccc(=O)n(Cc2c(-c3ccc(N4C[C@@H](CC(=O)O)CC(F)(F)C4)c(CC)n3)cnn2C)c1 [Example 41, (S)-2-(1-(2-ethyl-6-(1-methyl-5-((2-oxo-5-propylpyridin-1(2H)-yl)methyl)-1H-pyrazol-4-yl)pyridin-3-yl)-5,5-difluoropiperidin-3-yl)acetic acid]
0.5 to 5	CCCc1ccc(=O)n(Cc2c(-c3ccc(N4CCC[C@H](CC(=O)O)C4)c(CC)n3)cnn2C)c1 [Example 42, (R)-2-(1-(2-ethyl-6-(1-methyl-5-((2-oxo-5-propylpyridin-1(2H)-yl)methyl)-1H-pyrazol-4-yl)pyridin-3-yl)piperidin-3-yl)acetic acid]
> 5	CCCc1ccnn(CCc2c(-c3ccc(N4CC(CC(=O)O)CC(F)(F)C4)c(C)n3)nnn2C)c1=O (centres unmarked) [Example 44, 2-[5,5-difluoro-1-(2-methyl-6-{1-methyl-5-[2-(6-oxo-5-propyl-1,6-dihydropyridazin-1-yl)ethyl]-1H-1,2,3-triazol-4-yl}pyridin-3-yl)piperidin-3-yl]acetic acid]
> 5	CCCc1ccc(=O)n(Cc2c(-c3cc(F)c(N4CCCC(CC(=O)O)C4)c(C)n3)nnn2C)c1 (centres unmarked) [Example 47, 2-(1-(4-fluoro-2-methyl-6-(1-methyl-5-((2-oxo-5-propylpyridin-1(2H)-yl)methyl)-1H-1,2,3-triazol-4-yl)pyridin-3-yl)piperidin-3-yl)acetic acid]
> 5	CCCc1ccc(=O)n(Cc2c(-c3cc(F)c(N4CCCC(CC(=O)O)C4)c(CC)n3)nnn2C)c1 (centres unmarked) [Example 48, 2-(1-(2-ethyl-4-fluoro-6-(1-methyl-5-((2-oxo-5-propylpyridin-1(2H)-yl)methyl)-1H-1,2,3-triazol-4-yl)pyridin-3-yl)piperidin-3-yl)acetic acid]
> 5	CCCc1ccc(=O)n(Cc2c(-c3ccc(N4C[C@@H](CC(=O)O)CC(F)(F)C4)c(C#N)n3)nnn2C)c1 [Example 49, (S)-2-(1-(2-cyano-6-(1-methyl-5-((2-oxo-5-propylpyridin-1(2H)-yl)methyl)-1H-1,2,3-triazol-4-yl)pyridin-3-yl)-5,5-difluoropiperidin-3-yl)acetic acid]
> 5	CCCc1ccc(=O)n(Cc2c(-c3ccc(N4CCC[C@H](CC(=O)O)C4)c(C#N)n3)nnn2C)c1 [Example 50, (R)-2-(1-(2-cyano-6-(1-methyl-5-((2-oxo-5-propylpyridin-1(2H)-yl)methyl)-1H-1,2,3-triazol-4-yl)pyridin-3-yl)piperidin-3-yl)acetic acid]
> 5	CCCc1ccc(=O)n(Cc2c(-c3ccc(N4CCC[C@@H](CC(=O)O)C4)c(C#N)n3)nnn2C)c1 [Example 51, (S)-2-(1-(2-cyano-6-(1-methyl-5-((2-oxo-5-propylpyridin-1(2H)-yl)methyl)-1H-1,2,3-triazol-4-yl)pyridin-3-yl)piperidin-3-yl)acetic acid]
> 5	CCCc1ccc(=O)n(Cc2c(-c3cnc(N4CCCC(CC(=O)O)C4)cn3)nnn2C)c1 (centres unmarked) [Example 57, 2-(1-(5-(1-methyl-5-((2-oxo-5-propylpyridin-1(2H)-yl)methyl)-1H-1,2,3-triazol-4-yl)pyrazin-2-yl)piperidin-3-yl)acetic acid]
< 0.1	CCCc1ccc(=O)n(Cc2c(-c3ccc(N4CCC[C@H](CC(=O)O)C4)c(C(F)(F)F)n3)nnn2C)c1 [Example 58, 2-[(3R)-1-(6-{1-methyl-5-[(2-oxo-5-propyl-1,2-dihydropyridin-1-yl)methyl]-1H-1,2,3-triazol-4-yl}-2-(trifluoromethyl)pyridin-3-yl)piperidin-3-yl]acetic acid]
